# Reference: patent US11000033B2, “Ketone or oxime compound, and herbicide” (NISSAN CHEMICAL CORPORATION, priority 2014, dated 2021)
# Tests used:
# Type in all cases: in vivo
# Setaria viridis = test: Test Example 4: herbicidal effect by soil treatment (symbol G); details: application herbicide amount 320 g/ha
# In short: (§1)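 Seeds were sown in sterilized diluvial soil, covered with about 1.5 cm of soil, and the soil surface was sprayed with a water-diluted emulsion of the compound at a predetermined rate. Plants grew in a greenhouse at 25° C. to 30° C.; effects were scored visually 3 weeks after application.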
# Stellaria media = test: Test Example 5: herbicidal effect by foliage application, plastic box (symbol P); details: 320 g/ha, 3 weeks after application
# In short: (§2)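 Sowing in sterilized diluvial soil, 14 days' greenhouse growth at 25° C. to 30° C., then uniform small-sprayer foliar application of aqueous emulsion dilution; plants scored three weeks afterwards.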
# [1] = test system: Echinochloa crus-galli var. crus-galli; test: Test Example 5: herbicidal effect by foliage application, plastic box (symbol H); details: 320 g/ha, 3 weeks after application
# In short: as §2
# Apera spica-venti [2] = test: Test Example 4: herbicidal effect by soil treatment (symbol L); details: application herbicide amount 320 g/ha
# In short: as §1
# Digitaria ciliaris = test: Test Example 5: herbicidal effect by foliage application, plastic box (symbol F); details: 320 g/ha, 3 weeks after application
# In short: as §2
# Galium spurium = test: Test Example 4: herbicidal effect by soil treatment (symbol Q); details: application herbicide amount 320 g/ha
# In short: as §1
# soybean = test: Test Example 4: effect on crop by soil treatment (symbol d); details: application herbicide amount 320 g/ha
# In short: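 The test used sterilized diluvial soil. Seed was set down in spots and overlaid with about 1.5 cm of soil before growth in a greenhouse kept at 25° C. to 30° C.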
# Amaranthus retroflexus = test: Test Example 4: herbicidal effect by soil treatment (symbol N); details: application herbicide amount 320 g/ha
# In short: as §1
# rapeseed = test: Test Example 5: effect on crop by foliage application, plastic box (symbol g); details: 320 g/ha, 3 weeks after application
# In short: (§3)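 Crop and weed seeds sown in spots in sterilized diluvial soil in plastic boxes and covered with about 1.5 cm soil. Plants raised in a greenhouse at 25° C. to 30° C. for foliar application.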
# beet = test: Test Example 5: effect on crop by foliage application, plastic box (symbol f); details: 320 g/ha, 3 weeks after application
# In short: as §3
# Avena fatua [3] = test: Test Example 4: herbicidal effect by soil treatment (symbol I); details: application herbicide amount 320 g/ha
# In short: as §1
# Abutilon theophrasti = test: Test Example 5: herbicidal effect by foliage application, plastic box (symbol M); details: 320 g/ha, 3 weeks after application
# In short: as §2
# Veronica persica = test: Test Example 5: herbicidal effect by foliage application, plastic box (symbol R); details: 320 g/ha, 3 weeks after application
# In short: as §2
# Chenopodium album = test: Test Example 5: herbicidal effect by foliage application, plastic box (symbol O); details: 320 g/ha, 3 weeks after application
# In short: as §2
# Scirpus juncoides = test: Test Example 1: herbicidal activity, application before weed generation in submerged conditions (symbol B); details: application herbicide amount 320 g/ha
# In short: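 Scores run 0 to 5 by herbicidal ratio, with 5 meaning 90% or more and 0 meaning 5% or lower, read 3 weeks after treatment. Compound was applied as a diluted emulsion to the water surface of submerged alluvial-soil pots on the day weed seeds were sown.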
# Avena fatua [4] = test: Test Example 5: herbicidal effect by foliage application, plastic box (symbol I); details: 320 g/ha, 3 weeks after application
# In short: as §2
# Leptochloa chinensis = test: Test Example 3: herbicidal effect by foliage application, Wagner pot (symbol D); details: application herbicide amount 320 g/ha
# In short: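 Plants sown in submerged alluvial soil (water depth 0.1–0.5 cm) in a 25–30 °C greenhouse and grown 14 days. An emulsion of the compound diluted in water to a set herbicide amount was sprayed uniformly on foliage. Effect on each plant scored 3 weeks after application.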
# Apera spica-venti [5] = test: Test Example 5: herbicidal effect by foliage application, plastic box (symbol L); details: 320 g/ha, 3 weeks after application
# In short: as §2
Structure (SMILES),"Herbicidal effect grade, G: Setaria viridis (Setaria viridis)","P: Stellaria media, herbicidal effect (criteria of Test Example 1) (Stellaria media)","H: Echinochloa crus-galli var. crus-galli, herbicidal effect (criteria of Test Example 1) [1]","Herbicidal effect grade, L: Apera spica-venti (Apera spica-venti [2])","F: Digitaria ciliaris, herbicidal effect (criteria of Test Example 1) (Digitaria ciliaris)","Herbicidal effect grade, Q: Galium spurium (Galium spurium)","Effect on crop grade, d: soybean (soybean)","Herbicidal effect grade, N: Amaranthus retroflexus (Amaranthus retroflexus)","g: rapeseed, effect on crop (criteria of Test Example 1) (rapeseed)","f: beet, effect on crop (criteria of Test Example 1) (beet)","Herbicidal effect grade, I: Avena fatua (Avena fatua [3])","M: Abutilon theophrasti, herbicidal effect (criteria of Test Example 1) (Abutilon theophrasti)","R: Veronica persica, herbicidal effect (criteria of Test Example 1) (Veronica persica)","O: Chenopodium album, herbicidal effect (criteria of Test Example 1) (Chenopodium album)","Herbicidal effect grade, B: Scirpus juncoides (Scirpus juncoides)","I: Avena fatua, herbicidal effect (criteria of Test Example 1) (Avena fatua [4])","herbicidal effect on D (Leptochloa chinensis), grade 0-5 (Leptochloa chinensis)","L: Apera spica-venti, herbicidal effect (criteria of Test Example 1) (Apera spica-venti [5])","G: Setaria viridis, herbicidal effect grade (Setaria viridis)","L: Apera spica-venti, herbicidal effect grade (Apera spica-venti [2])",also measured
CC(=O)CC1CC(O)=C(c2c(C)cc(OCC(F)(F)F)cc2C)C1=O (stereo not drawn) [7-015],5 (Herbicidal ratio of 90% or more (almost completely withered)),1 (Herbicidal ratio of 5% or higher and lower than 20%),5 (Herbicidal ratio of 90% or more (almost completely withered)),4 (Herbicidal ratio of 70% or higher and lower than 90%),5 (Herbicidal ratio of 90% or more (almost completely withered)),0 (Herbicidal ratio of 5% or lower (almost no effect)),0 (Herbicidal ratio of 5% or lower (almost no effect)),0 (Herbicidal ratio of 5% or lower (almost no effect)),5 (Herbicidal ratio of 90% or more (almost completely withered)),0 (Herbicidal ratio of 5% or lower (almost no effect)),3 (Herbicidal ratio of 40% or higher and lower than 70%),2 (Herbicidal ratio of 20% or higher and lower than 40%),4 (Herbicidal ratio of 70% or higher and lower than 90%),3 (Herbicidal ratio of 40% or higher and lower than 70%),1 (Herbicidal ratio of 5% or higher and lower than 20%),5 (Herbicidal ratio of 90% or more (almost completely withered)),5 (Herbicidal ratio of 90% or more (almost completely withered)),5 (Herbicidal ratio of 90% or more (almost completely withered)),,,
CC(=O)CC1CC(O)=C(c2c(C)cc(-c3ccc(C)cc3)cc2C)C1=O (stereo not drawn) [7-007],4 (Herbicidal ratio of 70% or higher and lower than 90%),0 (Herbicidal ratio of 5% or lower (almost no effect)),5 (Herbicidal ratio of 90% or more (almost completely withered)),5 (Herbicidal ratio of 90% or more (almost completely withered)),5 (Herbicidal ratio of 90% or more (almost completely withered)),0 (Herbicidal ratio of 5% or lower (almost no effect)),0 (Herbicidal ratio of 5% or lower (almost no effect)),0 (Herbicidal ratio of 5% or lower (almost no effect)),0 (Herbicidal ratio of 5% or lower (almost no effect)),0 (Herbicidal ratio of 5% or lower (almost no effect)),0 (Herbicidal ratio of 5% or lower (almost no effect)),0 (Herbicidal ratio of 5% or lower (almost no effect)),0 (Herbicidal ratio of 5% or lower (almost no effect)),2 (Herbicidal ratio of 20% or higher and lower than 40%),1 (Herbicidal ratio of 5% or higher and lower than 20%),4 (Herbicidal ratio of 70% or higher and lower than 90%),5 (Herbicidal ratio of 90% or more (almost completely withered)),5 (Herbicidal ratio of 90% or more (almost completely withered)),,,
CON=C(C)CC1CC(O)=C(c2c(C)cc(-c3ccc(OC(F)(F)F)cc3)cc2C)C1=O (mixture of isomers) [6-056],,0 (Herbicidal ratio of 5% or lower (almost no effect)),4 (Herbicidal ratio of 70% or higher and lower than 90%),,5 (Herbicidal ratio of 90% or more (almost completely withered)),,,,3 (Herbicidal ratio of 40% or higher and lower than 70%),0 (Herbicidal ratio of 5% or lower (almost no effect)),,0 (Herbicidal ratio of 5% or lower (almost no effect)),0 (Herbicidal ratio of 5% or lower (almost no effect)),3 (Herbicidal ratio of 40% or higher and lower than 70%),0 (Herbicidal ratio of 5% or lower (almost no effect)),3 (Herbicidal ratio of 40% or higher and lower than 70%),5 (Herbicidal ratio of 90% or more (almost completely withered)),3 (Herbicidal ratio of 40% or higher and lower than 70%),2 (Herbicidal ratio of 20% or higher and lower than 40%),0 (Herbicidal ratio of 5% or lower (almost no effect)),"Q: Galium spurium, herbicidal effect grade (Galium spurium): 0 (Herbicidal ratio of 5% or lower (almost no effect)); d: soybean, effect on crop grade (soybean): 0 (Herbicidal ratio of 5% or lower (almost no effect)); N: Amaranthus retroflexus, herbicidal effect grade (Amaranthus retroflexus): 0 (Herbicidal ratio of 5% or lower (almost no effect)); I: Avena fatua, herbicidal effect grade (Avena fatua [3]): 0 (Herbicidal ratio of 5% or lower (almost no effect))"
CON=C(C)CC1CC(OCOC(=O)c2ccccc2)=C(c2c(C)cc(-c3ccc(Cl)cc3)cc2C)C1=O (stereo not drawn) [6-083],,1 (Herbicidal ratio of 5% or higher and lower than 20%),5 (Herbicidal ratio of 90% or more (almost completely withered)),,5 (Herbicidal ratio of 90% or more (almost completely withered)),,,,4 (Herbicidal ratio of 70% or higher and lower than 90%),3 (Herbicidal ratio of 40% or higher and lower than 70%),,5 (Herbicidal ratio of 90% or more (almost completely withered)),4 (Herbicidal ratio of 70% or higher and lower than 90%),5 (Herbicidal ratio of 90% or more (almost completely withered)),4 (Herbicidal ratio of 70% or higher and lower than 90%),5 (Herbicidal ratio of 90% or more (almost completely withered)),5 (Herbicidal ratio of 90% or more (almost completely withered)),5 (Herbicidal ratio of 90% or more (almost completely withered)),5 (Herbicidal ratio of 90% or more (almost completely withered)),5 (Herbicidal ratio of 90% or more (almost completely withered)),"Q: Galium spurium, herbicidal effect grade (Galium spurium): 0 (Herbicidal ratio of 5% or lower (almost no effect)); d: soybean, effect on crop grade (soybean): 0 (Herbicidal ratio of 5% or lower (almost no effect)); N: Amaranthus retroflexus, herbicidal effect grade (Amaranthus retroflexus): 0 (Herbicidal ratio of 5% or lower (almost no effect)); I: Avena fatua, herbicidal effect grade (Avena fatua [3]): 0 (Herbicidal ratio of 5% or lower (almost no effect))"
